From US20210298332A1, “AGENT FOR SUPPRESSING HEAT-RESISTANT ACIDOPHILIC BACTERIA, METHOD FOR PREVENTING CONTAMINATION WITH HEAT-RESISTANT ACIDOPHILIC BACTERIA, AND BEVERAGE” (SUNTORY HOLDINGS LIMITED, priority 2018, published 2021)
≈ marks a conversion by molar mass, not a printed value.

Test system: Thermo-Acidophilic Bacilli (Alicyclobacillus acidoterrestris ATCC 49025)
Assay: Evaluation of antibacterial action (agar plate dilution MIC)
Assay type: cell-based
Description: Thermo-Acidophilic Bacilli (Alicyclobacillus acidoterrestris ATCC 49025) were pre-incubated as test bacteria (conditions: YSG broth, 50±1° C., two days, aerobic conditions), so that a test bacterial solution was obtained. A 10 mg/mL xanthohumol solution and serial two-fold dilutions thereof were prepared using 99.5% ethanol. Each of the solution and dilutions was added to a medium (YSG agar medium) whose temperature is maintained at 50±1° C. after being sterilized and dissolved at a ratio of 1/99 (volume of xanthohumol solution/volume of medium solution) and mixed sufficiently. The resulting mixtures were each dispensed into a petri dish and solidified, whereby agar plate media were produced. Each of the agar plate media was smeared with the pre-incubated test bacterial solution, followed by incubation at 50±1° C. for five days under aerobic conditions. The lowest concentration where the growth of the bacteria was prevented was taken as the minimum inhibitory concentration (MIC).

Q: For `COc1cc(O)c(CC=C(C)C)c(O)c1C(=O)/C=C/c1ccc(O)cc1` [Xanthohumol], which “growth of Thermo-Acidophilic Bacilli” value is on record?
A: The value was “inhibit the growth”.

Q: What about the MIC (ATCC49025, 120 h, YSG agar medium, 50±1° C., five days, aerobic conditions) of the same compound?
A: The MIC was 3.13 µg/mL (≈ 8.83 µM).
